From PMC8400480, “Synthesis, Antibacterial and Pharmacokinetic Evaluation of Novel Derivatives of Harmine N^9-Cinnamic Acid” (Molecules, 2021)
Values after ≈ are worked out from the molar mass of the structure shown.

What was measured:
[1] = tested on: Escherichia coli CICC 10389 (E. coli); test: MIC, microplate dilution method; format: cell-based; details: Gram-negative, Mueller-Hinton broth, 37 °C, 18–24 h, read-out: MIC E. coli
Text: (§1) According to microplate dilution method, all the prepared compounds were screened for their in vitro antibacterial activity. The investigation included three representative Gram-positive strains, including Staphylococcus aureus CICC 10384 (S. aureus), Staphylococcus albus CICC 20237 (S. albus) and methicillinresistant Staphylococcus aureus ATCC 43300 (MRSA), and two representative Gram-negative strains, including Escherichia coli CICC 10389 (E. coli) and Pseudomonas aeruginosa CVCC 3359 (PA). Harmine and cinnamic acid were used as reference drugs.
(§2) The antibacterial efficiency of all prepared compounds was determined using the microplate dilution method. All compounds were prepared into different concentrations of stock solution according to their solubility. The compounds were added to the 96 well plate and serially diluted in Mueller-Hinton broth. Three Gram-positive strains (S. aureus, S. albus and MRSA) and two Gram-negative strains (E. coli and PA) were cultivated and added to the 96 well plate. The initial concentration of bacteria should be higher than 10^5 CFU/mL. The samples were incubated at 37 °C for 18–24 h. The MIC was determined for compounds by observing change of clarity in the broth. The same procedure was repeated in triplicate.

[2] = tested on: Pseudomonas aeruginosa CVCC 3359 (PA); test: MIC, microplate dilution method; format: cell-based; details: Gram-negative, Mueller-Hinton broth, 37 °C, 18–24 h, read-out: MIC PA
Text: as §1, §2

[3] = tested on: Staphylococcus albus CICC 20237 (S. albus); test: MIC, microplate dilution method; format: cell-based; details: Gram-positive; Mueller-Hinton broth, 37 °C, 18–24 h; read-out: MIC S. albus
Text: as §1, §2

[4] = tested on: Staphylococcus aureus CICC 10384 (S. aureus); test: MIC, microplate dilution method; format: cell-based; details: Gram-positive, Mueller-Hinton broth, 37 °C, 18–24 h, read-out: MIC S. aureus
Text: as §1, §2

[5] = tested on: methicillinresistant Staphylococcus aureus ATCC 43300 (MRSA); test: MIC, microplate dilution method; format: cell-based; details: Gram-positive, Mueller-Hinton broth, 37 °C, 18–24 h, read-out: MIC MRSA
Text: as §1, §2

[6] = tested on: S. aureus (CICC 10384); test: Bactericidal time-kill kinetics; format: cell-based, Staphylococcus aureus
Procedure: The bacteria S. aureus was prepared in Muellere Hinton broth at 37 °C for 6 h with shaking. The solution of 3c (1 × MIC and 6 × MIC), 5a (1 × MIC and 6 × MIC), harmine (1 × MIC and 6 × MIC) and saline (served as a control group) were separately added to the bacterial suspension so that the final bacterial concentration were 10^6~10^7 CFU/mL. At the predetermined time point (0, 0.5, 2, 4, 6, 12 and 24 h), […] of aliquots were serially diluted in normal saline, plated on sterile Muellere Hinton agar plates, and incubated at 37 °C for 24 h. After incubation, the viable colonies were counted and represented as log10 (CFU/mL). The same procedure was repeated in triplicate.
Figure 3 Time-kill kinetics of compound 3c (A) and 5a (B) at 1 × and 6 × MIC against S. aureus (CICC 10384).

SMILES | MIC [1] [µg/mL] | MIC [2] [µg/mL] | MIC [3] [µg/mL] | MIC [4] [µg/mL] | MIC [5] [µg/mL] | melting point [°C] | time to 4-log10 reduction ([6]; 1 × MIC) | time to completely kill the bacteria ([6]; 6 × MIC) [h]
O=C(O)/C=C/c1ccccc1 [Cinnamic acid] | 1120 (≈ 7590 µM) | 1120 (≈ 7590 µM) | 1120 (≈ 7590 µM) | 1120 (≈ 7590 µM) | 1120 (≈ 7590 µM) | – | – | –
COc1ccc(/C=C/C(=O)OCCCn2c3cc(OC)ccc3c3ccnc(C)c32)cc1 [Compound 3a, 3-(7-Methoxy-1-methyl-9H-pyridine [3,4-b]indole-9-yl)propyl(E)-3-(4-methoxyphenyl) acrylate] | 650 (≈ 1510 µM) | 325 (≈ 755 µM) | 650 (≈ 1510 µM) | 325 (≈ 755 µM) | 1300 (≈ 3020 µM) | 133.2 to 133.9 | – | –
COc1ccc2c3ccnc(C)c3n(CCCOC(=O)/C=C/c3cc(OC)c(OC)c(OC)c3)c2c1 [Compound 3b, 3-(7-Methoxy-1-methyl-9H-pyridine [3,4-b]indole-9-yl) propyl (E)-3-(3,4,5-trimethoxyphenyl) acrylate] | 638 (≈ 1300 µM) | 319 (≈ 650 µM) | 638 (≈ 1300 µM) | 319 (≈ 650 µM) | 638 (≈ 1300 µM) | 102.6 to 104.2 | – | –
COc1ccc2c3ccnc(C)c3n(CCCOC(=O)/C(=C/c3cc(OC)c(OC)c(OC)c3)c3ccc(OC)c(OC)c3)c2c1 [Compound 3d, 3-(7-Methoxy-1-methyl-9H-pyridine [3,4-b]indole-9-yl) propyl (E)-2-(3,4-dimethoxyphenyl)-3-(3,4,5-trimethoxyphenyl) acrylate] | 725 (≈ 1160 µM) | 362 (≈ 578 µM) | 725 (≈ 1160 µM) | 181 (≈ 289 µM) | 362 (≈ 578 µM) | 173.6 to 175.2 | – | –
COc1ccc(/C=C/C(=O)OCCCCn2c3cc(OC)ccc3c3ccnc(C)c32)cc1 [Compound 4a, 4-(7-Methoxy-1-methyl-9H-pyridine [3,4-b]indole-9-yl) butyl (E)-3-(4-methoxyphenyl) acrylate] | 152 (≈ 343 µM) | 305 (≈ 686 µM) | 305 (≈ 686 µM) | 305 (≈ 686 µM) | 610 (≈ 1370 µM) | 118.7 to 120.2 | – | –
COc1ccc2c3ccnc(C)c3n(CCCCOC(=O)/C=C/c3cc(OC)c(OC)c(OC)c3)c2c1 [Compound 4b, 4-(7-Methoxy-1-methyl-9H-pyridine [3,4-b]indole-9-yl) butyl (E)-3-(3,4,5-trimethoxyphenyl) acrylate] | 450 (≈ 892 µM) | 450 (≈ 892 µM) | 225 (≈ 446 µM) | 112 (≈ 223 µM) | 450 (≈ 892 µM) | 95.7 to 96.3 | – | –
COc1ccc2c3ccnc(C)c3n(CCCCOC(=O)/C=C/c3ccccc3[N+](=O)[O-])c2c1 [Compound 4c, 4-(7-Methoxy-1-methyl-9H-pyridine [3,4-b]indole-9-yl) butyl (E)-3-(2-nitrophenyl) acrylate] | 775 (≈ 1690 µM) | 388 (≈ 843 µM) | 1550 (≈ 3370 µM) | 1550 (≈ 3370 µM) | 1550 (≈ 3370 µM) | 130.9 to 132.2 | – | –
COc1ccc2c3ccnc(C)c3n(CCCCOC(=O)/C(=C/c3cc(OC)c(OC)c(OC)c3)c3ccc(OC)c(OC)c3)c2c1 [Compound 4d, 4-(7-Methoxy-1-methyl-9H-pyridine [3,4-b]indole-9-yl) butyl (E)-2-(3,4-dimethoxyphenyl)-3-(3,4,5-trimethoxyphenyl) acrylate] | 212 (≈ 332 µM) | 212 (≈ 332 µM) | 53.1 (≈ 82.9 µM) | 26.6 (≈ 41.5 µM) | 106 (≈ 166 µM) | 95.7 to 97.4 | – | –
COc1ccc(/C=C/C(=O)OCCCCCn2c3cc(OC)ccc3c3ccnc(C)c32)cc1 [Compound 5a, 5-(7-Methoxy-1-methyl-9H-pyridine [3,4-b]indole-9-yl) amyl (E)-3-(4-methoxyphenyl) acrylate] | 250 (≈ 545 µM) | 125 (≈ 273 µM) | 15.6 (≈ 34.1 µM) | 15.6 (≈ 34.1 µM) | 62.5 (≈ 136 µM) | 91.1 to 92.3 | about 24 h | ≤ 12
COc1ccc2c3ccnc(C)c3n(CCCCCOC(=O)/C=C/c3cc(OC)c(OC)c(OC)c3)c2c1 [Compound 5b, 5-(7-Methoxy-1-methyl-9H-pyridine [3,4-b]indole-9-yl) amyl (E)-3-(3,4,5-trimethoxyphenyl) acrylate] | 1140 (≈ 2190 µM) | 1140 (≈ 2190 µM) | 2280 (≈ 4390 µM) | 1140 (≈ 2190 µM) | 2280 (≈ 4390 µM) | 103.7 to 104.7 | – | –
COc1ccc2c3ccnc(C)c3n(CCCCCOC(=O)/C=C/c3ccccc3[N+](=O)[O-])c2c1 [Compound 5c, 5-(7-Methoxy-1-methyl-9H-pyridine [3,4-b]indole-9-yl) amyl (E)-3-(2-nitrophenyl) acrylate] | 220 (≈ 465 µM) | 220 (≈ 465 µM) | 110 (≈ 232 µM) | 110 (≈ 232 µM) | 220 (≈ 465 µM) | 127.4 to 130 | – | –
COc1ccc2c3ccnc(C)c3n(CCCCCOC(=O)/C(=C/c3cc(OC)c(OC)c(OC)c3)c3ccc(OC)c(OC)c3)c2c1 [Compound 5d, 5-(7-Methoxy-1-methyl-9H-pyridine [3,4-b]indole-9-yl) pentyl (E)-2-(3,4-dimethoxyphenyl)-3-(3,4,5-trimethoxyphenyl) acrylate] | 762 (≈ 1160 µM) | 381 (≈ 582 µM) | 95.3 (≈ 146 µM) | 23.8 (≈ 36.4 µM) | 95.3 (≈ 146 µM) | 117.4 to 119.9 | – | –
COc1ccc(/C=C/C(=O)OCCCCCCn2c3cc(OC)ccc3c3ccnc(C)c32)cc1 [Compound 6a, 6-(7-Methoxy-1-methyl-9H-pyridine [3,4-b]indole-9-yl) hexyl (E)-3-(4-methoxyphenyl) acrylate] | 662 (≈ 1400 µM) | 331 (≈ 701 µM) | 166 (≈ 350 µM) | 82.8 (≈ 175 µM) | 331 (≈ 701 µM) | 88.7 to 90.4 | – | –
COc1ccc2c3ccnc(C)c3n(CCCCCCOC(=O)/C=C/c3cc(OC)c(OC)c(OC)c3)c2c1 [Compound 6b, 6-(7-Methoxy-1-methyl-9H-pyridine [3,4-b]indole-9-yl) hexyl (E)-3-(3,4,5-trimethoxyphenyl) acrylate] | 305 (≈ 573 µM) | 305 (≈ 573 µM) | 152 (≈ 286 µM) | 152 (≈ 286 µM) | 306 (≈ 574 µM) | 73.7 to 73.9 | – | –
COc1ccc2c3ccnc(C)c3n(CCCCCCOC(=O)/C=C/c3ccccc3[N+](=O)[O-])c2c1 [Compound 6c, 6-(7-Methoxy-1-methyl-9H-pyridine [3,4-b]indole-9-yl) hexyl(E)-3-(2-nitrophenyl) acrylate] | 750 (≈ 1540 µM) | 750 (≈ 1540 µM) | 750 (≈ 1540 µM) | 375 (≈ 769 µM) | 1500 (≈ 3080 µM) | 117.3 to 119.9 | – | –
COc1ccc2c3ccnc(C)c3n(CCCCCCOC(=O)/C(=C/c3cc(OC)c(OC)c(OC)c3)c3ccc(OC)c(OC)c3)c2c1 [Compound 6d, 6-(7-Methoxy-1-methyl-9H-pyridine [3,4-b]indole-9-yl) hexyl (E)-2-(3,4-dimethoxyphenyl)-3– (3,4,5-trimethoxyphenyl) acrylate] | 212 (≈ 318 µM) | 212 (≈ 318 µM) | 53.1 (≈ 79.4 µM) | 53.1 (≈ 79.4 µM) | 212 (≈ 318 µM) | 113.1 to 115 | – | –
